# ChEMBL document CHEMBL1201862, “PubChem BioAssay data set” (2004)
# Active and inactive are the calls of the source.
# Legend:
# [1] = molecular target: T1, Heat shock factor protein 1 (Mus musculus, UniProt P38532); experiment: HSF1 potentiators in luciferase reporter cells, confirmation, cell-based, NIH3T3, luminescence, dose retest (AID 435004); assay type: functional;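 also: stress induced by proteasome inhibitor MG132 added 30 min after compound; luciferase reporter driven by HSF1 response element in NIH3T3 cells; actives raise luminescence as potentiators of the MG132 stress response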
# T1 sequence (P38532 whole entry): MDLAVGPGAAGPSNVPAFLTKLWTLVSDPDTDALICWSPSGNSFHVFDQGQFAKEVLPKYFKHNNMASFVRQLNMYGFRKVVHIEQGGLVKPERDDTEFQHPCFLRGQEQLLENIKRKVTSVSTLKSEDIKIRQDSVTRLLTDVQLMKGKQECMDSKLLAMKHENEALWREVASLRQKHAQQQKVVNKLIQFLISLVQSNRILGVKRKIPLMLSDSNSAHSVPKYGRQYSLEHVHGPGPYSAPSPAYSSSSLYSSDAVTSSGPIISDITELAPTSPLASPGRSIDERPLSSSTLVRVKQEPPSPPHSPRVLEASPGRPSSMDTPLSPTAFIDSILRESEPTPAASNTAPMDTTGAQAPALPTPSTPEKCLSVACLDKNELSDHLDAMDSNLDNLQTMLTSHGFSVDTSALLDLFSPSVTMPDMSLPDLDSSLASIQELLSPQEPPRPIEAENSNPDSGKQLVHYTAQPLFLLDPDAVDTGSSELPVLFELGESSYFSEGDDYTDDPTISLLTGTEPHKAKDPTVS
# [2] = Luminescence Cell-Based Dose Response HTS to Identify Inhibitors of 5'UTR Stem-Loop Driven Prion Protein mRNA Translation in H4 Neuroglioblastoma Cells. [Related pubchem assays: 1827 (Project Summary), 1813 (Primary HTS)]; assay type: functional
# [3] = inhibitors of firefly luciferase expression or activity, dose response, H4 neuroglioma cells, luminescence (AID 1990); assay type: functional, cell-based
# [4] = inhibitors of SNCA 5'UTR-driven reporter translation, confirmation, H4 neuroglioma cells, luminescence (AID 1988); assay type: functional, cell-based
# Large T antigen = Large T antigen (Simian virus 40, UniProt P03070); assay type: functional, Betapolyomavirus macacae;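 also: Confirmatory-stage PubChem screen for compounds that inhibit SV40 T antigen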
# [5] = microbe, parasite or virus in culture; assay type: functional; settings: Mycobacterium tuberculosis
# [6] = molecular target: T2, Replicative DNA helicase DnaB (Mycobacterium tuberculosis, UniProt P9WMR3); experiment: DnaB intein splicing inhibitors, dose response, biochemical, cell-free fluorescence (AID 449749); assay type: functional
# T2 sequence (P9WMR3 whole entry): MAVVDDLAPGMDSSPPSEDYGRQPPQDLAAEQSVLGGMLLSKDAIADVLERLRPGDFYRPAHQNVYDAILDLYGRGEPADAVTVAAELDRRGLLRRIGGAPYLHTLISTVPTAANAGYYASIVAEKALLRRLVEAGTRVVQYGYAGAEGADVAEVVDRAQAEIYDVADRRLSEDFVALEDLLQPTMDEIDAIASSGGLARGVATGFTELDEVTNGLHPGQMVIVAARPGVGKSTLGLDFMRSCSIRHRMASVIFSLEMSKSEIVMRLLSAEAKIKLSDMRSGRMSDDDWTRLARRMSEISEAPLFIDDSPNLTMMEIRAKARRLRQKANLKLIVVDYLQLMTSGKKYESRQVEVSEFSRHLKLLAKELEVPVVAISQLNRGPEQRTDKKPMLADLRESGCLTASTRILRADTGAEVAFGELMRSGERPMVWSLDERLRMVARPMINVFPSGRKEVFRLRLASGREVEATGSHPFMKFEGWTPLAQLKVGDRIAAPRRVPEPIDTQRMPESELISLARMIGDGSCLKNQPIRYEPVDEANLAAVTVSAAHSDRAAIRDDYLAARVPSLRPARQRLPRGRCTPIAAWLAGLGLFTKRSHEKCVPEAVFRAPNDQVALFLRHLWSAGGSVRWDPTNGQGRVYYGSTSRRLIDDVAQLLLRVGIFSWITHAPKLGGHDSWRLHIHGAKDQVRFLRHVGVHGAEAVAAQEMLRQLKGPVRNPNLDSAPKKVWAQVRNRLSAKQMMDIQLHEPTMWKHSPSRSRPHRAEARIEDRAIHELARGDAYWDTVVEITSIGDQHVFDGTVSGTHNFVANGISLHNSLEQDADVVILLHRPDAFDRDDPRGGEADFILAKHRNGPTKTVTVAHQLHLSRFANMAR
# Protein RecA = molecular target: T3, Protein RecA (Mycobacterium tuberculosis, UniProt P9WHJ3); experiment: Fluorescence Cell-Free Homogeneous Dose Retest to Identify Inhibitors of RecA-Intein Splicing Activity. [Related pubchem assays (depositor defined):AID2097, AID2223, AID489010, AID492950]; assay type: functional
# T3 sequence (P9WHJ3 whole entry): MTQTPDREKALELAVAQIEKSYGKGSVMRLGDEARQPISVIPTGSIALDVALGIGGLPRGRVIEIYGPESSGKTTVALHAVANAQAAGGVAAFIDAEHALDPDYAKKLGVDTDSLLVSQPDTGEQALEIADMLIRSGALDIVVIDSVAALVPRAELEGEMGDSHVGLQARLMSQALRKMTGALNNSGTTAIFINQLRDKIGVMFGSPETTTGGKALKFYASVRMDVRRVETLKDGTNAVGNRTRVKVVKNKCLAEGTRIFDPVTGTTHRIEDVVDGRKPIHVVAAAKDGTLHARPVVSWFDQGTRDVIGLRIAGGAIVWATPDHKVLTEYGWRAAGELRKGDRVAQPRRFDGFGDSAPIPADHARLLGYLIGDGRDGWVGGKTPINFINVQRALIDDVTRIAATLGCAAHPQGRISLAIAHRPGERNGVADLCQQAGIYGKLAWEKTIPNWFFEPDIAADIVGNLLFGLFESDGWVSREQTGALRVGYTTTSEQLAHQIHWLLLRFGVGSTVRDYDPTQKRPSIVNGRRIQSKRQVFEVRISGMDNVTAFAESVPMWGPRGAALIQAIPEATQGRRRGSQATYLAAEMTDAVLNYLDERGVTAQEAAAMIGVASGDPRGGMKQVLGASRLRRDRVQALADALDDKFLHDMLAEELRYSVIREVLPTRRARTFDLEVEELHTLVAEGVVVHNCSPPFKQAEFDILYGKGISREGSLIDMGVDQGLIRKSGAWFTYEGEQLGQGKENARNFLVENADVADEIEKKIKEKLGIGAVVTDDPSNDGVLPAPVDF
# [7] = cytotoxicity toward NIH3T3 fibroblasts, dose response, counter-screen, cell-based, ATP luminescence, mouse fibroblasts (AID 2010); assay type: functional;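 also: cells exposed to compound for about 90 hours before reading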
# INS1 = experiment: beta cell apoptosis inhibitors, cytokine rescue, dose response, luminescence, retest (AID 449756); assay type: functional, cell-based; settings: Rattus norvegicus;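 also: cell death triggered by IL-1 beta plus TNF-alpha plus IFN-gamma mixture; protective hits raise ATP signal compared with cytokine alone wells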
# [8] = inhibitors of intracellular T. cruzi replication, confirmation, NIH3T3 host cells, beta-gal luminescence (AID 2044); assay type: functional, cell-based;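 also: intracellular parasites grown in NIH/3T3 mouse fibroblasts as host cells; luminescent beta-galactosidase reporter signal from transgenic T. cruzi replicating inside host cells; inhibitors lower the luminescence signal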
# [9] = Luminescence Cell-Based Dose Retest to Confirm Inhibitors of Cancer Stem Cells. [Related pubchem assays (depositor defined):AID2717, AID2721]; assay type: functional; settings: Homo sapiens
# [10] = HEp-2 cell cytotoxicity, dose response, cytotoxicity control for RSV inhibitor project, HTS (AID 2410); assay type: functional; settings: human respiratory syncytial virus
# Paired box protein Pax-8 = Paired box protein Pax-8 (Homo sapiens, UniProt Q06710); experiment: inhibitors of PAX8-driven TPO luciferase reporter, dose response, RMG-I cells, cherry-pick (AID 687027); assay type: functional, cell-based;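 also: luciferase reporter driven by Pax8 target thyroperoxidase promoter measured by SteadyGlo luminescence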
# Chain of Paired box protein Pax-8 (Q06710 whole entry): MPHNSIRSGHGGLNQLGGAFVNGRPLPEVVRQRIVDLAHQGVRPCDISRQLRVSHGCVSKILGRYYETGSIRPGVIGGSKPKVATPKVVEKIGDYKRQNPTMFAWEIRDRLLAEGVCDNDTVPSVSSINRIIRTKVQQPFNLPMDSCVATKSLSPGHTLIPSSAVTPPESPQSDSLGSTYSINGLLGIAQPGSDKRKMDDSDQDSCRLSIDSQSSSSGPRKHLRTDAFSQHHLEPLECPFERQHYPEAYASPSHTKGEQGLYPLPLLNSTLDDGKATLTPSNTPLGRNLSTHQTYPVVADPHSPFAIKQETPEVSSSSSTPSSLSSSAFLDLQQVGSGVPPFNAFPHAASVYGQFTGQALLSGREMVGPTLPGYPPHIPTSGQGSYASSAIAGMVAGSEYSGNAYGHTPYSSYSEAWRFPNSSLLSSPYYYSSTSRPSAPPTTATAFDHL
# Chain of Large T antigen (P03070 whole entry): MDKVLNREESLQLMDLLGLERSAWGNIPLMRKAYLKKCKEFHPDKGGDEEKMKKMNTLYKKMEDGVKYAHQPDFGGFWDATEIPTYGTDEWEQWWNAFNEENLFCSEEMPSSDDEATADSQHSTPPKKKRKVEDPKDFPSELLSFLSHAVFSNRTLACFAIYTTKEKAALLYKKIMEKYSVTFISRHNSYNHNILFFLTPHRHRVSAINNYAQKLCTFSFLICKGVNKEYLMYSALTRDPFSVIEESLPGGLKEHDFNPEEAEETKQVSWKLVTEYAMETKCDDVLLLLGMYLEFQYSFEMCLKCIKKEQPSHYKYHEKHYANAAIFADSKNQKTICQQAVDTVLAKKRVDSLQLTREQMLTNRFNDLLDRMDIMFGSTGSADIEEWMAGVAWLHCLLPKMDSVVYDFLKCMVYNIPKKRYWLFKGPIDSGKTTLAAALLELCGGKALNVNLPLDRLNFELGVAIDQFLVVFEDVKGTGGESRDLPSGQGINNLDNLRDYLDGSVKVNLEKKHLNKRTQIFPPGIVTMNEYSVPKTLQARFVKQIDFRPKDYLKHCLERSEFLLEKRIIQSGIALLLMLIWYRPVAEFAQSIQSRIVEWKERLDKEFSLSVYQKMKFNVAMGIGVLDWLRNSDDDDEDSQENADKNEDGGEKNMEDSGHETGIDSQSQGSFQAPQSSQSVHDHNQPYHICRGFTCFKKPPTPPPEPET
Structure (SMILES),EC50 [1],EC50 [2],EC50 [3],EC50 [4],further results
COc1ccccc1NC(=O)C1=C(C)N=C2CC(c3ccc(OC)c(OC)c3)CC(O)=C2C1c1coc2ccccc2c1=O (centres undefined),34.5 µM (active),,,,
CC1(c2ccccc2)CC(C)(C)n2c(O)c(C3=NC(=S)NC3=O)c3cccc1c32 (centres undefined),,17.6 µM (active),20.5 µM (active),22.8 µM (active),
Cc1cc(Oc2ccc(=O)n(C)n2)nc(SCc2ccccc2)n1,,16.6 µM (active),> 120 µM (not active),22.1 µM (active),
CC(=O)Nc1nnc(SCC(=O)c2ccc(F)cc2)s1,67.4 µM (active),,,,
Nc1cc(C(=O)O)ccc1Nc1ccccc1,,,,,IC50 (Large T antigen): 12.5 µM (active)
COCCn1c(=O)[nH]c2cc(C(=O)N3CCN(c4cccc(Cl)c4)CC3)ccc2c1=O,> 260 µM (inactive),,,,
COc1ccc(NC(=O)c2sc(S)nc2N)cc1,,,,,IC50 (Large T antigen): 7.51 µM (active)
Cc1sc2nc(CSc3cccc(C(F)(F)F)c3)nc(O)c2c1C,> 260 µM (inactive),,,,
Oc1cc(CCl)nc(Cc2c(Cl)cccc2Cl)n1,,,,,CC50 [5]: 21.7 µM (active)
Cc1cc(Cl)ccc1OCC(=O)Nc1ccccc1N1CCOCC1,,> 120 µM (not active),18.2 µM (active),> 120 µM (not active),
COP(=O)(OC)c1nc(-c2cccc3ccccc23)oc1NCc1ccccc1,> 260 µM (inactive),,,,
CCCCCn1c(Sc2ccccc2)nc2c1c(=O)[nH]c(=O)n2C,,20.1 µM (active),5.33 µM (active),16.9 µM (active),
COCCCNC(=O)CCn1c(=O)c2ccccc2n(CC(=O)Nc2cc(Cl)ccc2C)c1=O,> 260 µM (inactive),,,,
CCn1c(-c2ccccc2)c(C(=O)CCl)c2ccccc21,7.71 µM (active),,,,AC50 [6]: 3.27 µM (active); EC50 (Protein RecA): 1.05 µM (active); EC50 [7]: 4.12 µM (active); AC50 (INS1): 7.82 µM (active); EC50 [8]: 1.42 µM (active)
CC(=O)c1ccc(-c2ccccc2[C@H]2[C@H]3C=CC[C@@H](C)[C@@H]3C(=O)N2Cc2ccccc2)cc1,,> 120 µM (not active),30 µM (active),22.4 µM (active),
O=C(CN1C(=O)/C(=C\c2ccco2)SC1=S)Nc1ccc(O)cc1C(=O)O,,,,,IC50 (Large T antigen): 74.2 µM (active)
COc1ccc(-c2cn(Cc3ccc(C(=O)NCc4ccc(C)cc4)cc3)c(C(C)N)n2)cc1 (centres undefined),,,,,CC50 [5]: > 40 µM (active)
Fc1cc(F)cc(Nc2nc(Cl)nc(NC3CCCC3)n2)c1,,,,,CC50 [5]: > 40 µM (active)
Cc1cc2oc3c(c(=O)c2cc1C)C(c1ccc(C(C)C)cc1)N(CCCN1CCOCC1)C3=O (centres undefined),> 260 µM (inactive),,,,
Cc1cc2oc(=O)c(CC(=O)NCCCN(C)C)c(C)c2c2occ(C(C)(C)C)c12,,12.6 µM (active),> 120 µM (not active),8.72 µM (active),AC50 [9]: 1.22 µM (active); EC50 [7]: 4.86 µM (active); EC50 [8]: 2.29 µM (active)
COc1ccc(C2=Nn3c(nnc3-c3ccccn3)SC2)cc1OC,,> 120 µM (not active),20.8 µM (active),17.2 µM (active),
FC(F)(F)c1cccc(OCc2nnc3n2CCC3)c1,,> 120 µM (not active),> 120 µM (not active),> 120 µM (not active),
O=C1N=C(Nc2ccc(O)cc2)S/C1=C/c1ccco1,,,,,IC50 (Large T antigen): 3.47 µM (active)
COc1ccc(-n2c(=O)c3c4c(sc3n3c(S)nnc23)COC(C(C)C)C4)cc1 (centres undefined),,,,,IC50 (Large T antigen): 16.7 µM (active)
CCOc1cc(/C=N/NC(=O)Cn2nc([N+](=O)[O-])cc2C)cc(Br)c1OCc1ccccc1C,> 260 µM (inactive),,,,CC50 [10]: 8.17 µM (active); EC50 [7]: > 60 µM (not active); EC50 [8]: 2.32 µM (active)
Cc1c(/C=N/NC(=O)c2ccc(Br)o2)cnn1C,> 260 µM (inactive),,,,
C[C@H]1CCCCO[C@H](CN(C)Cc2ccc(Cl)c(Cl)c2)[C@@H](C)CN([C@@H](C)CO)C(=O)c2cc(NC(=O)Nc3ccc(F)cc3)ccc2O1,,,,,AC50 (Paired box protein Pax-8): 25.9 µM (active)
C[C@@H]1CCCCO[C@H](CN(C)C)[C@H](C)CN([C@H](C)CO)C(=O)c2cc(NC(=O)Nc3cccc4ccccc34)ccc2O1,,,,,AC50 (Paired box protein Pax-8): 33.5 µM (active)
COc1ccc(S(=O)(=O)Nc2ccc3c(c2)CC(=O)N([C@H](C)CO)C[C@H](C)[C@@H](CN(C)Cc2ccc(-c4ccccc4)cc2)O3)cc1,,,,,AC50 (Paired box protein Pax-8): 9.41 µM (active)
COC(=O)C1C/C(=N\NS(=O)(=O)c2ccc(C)cc2)c2sccc2C1 (centres undefined),,> 120 µM (not active),> 120 µM (not active),> 120 µM (not active),
